Data taken from patent publication US10077261B2, “Imidazolin-5-one derivative useful as FASN inhibitors for the treatment of cancer” (Janssen Pharmaceutica NV, priority 2012, dated 2018).

Tests used:
A2780 ovarian cells [1] = test: A2780 ovarian cell proliferation assay in lipid reduced medium, with palmitate (MTT); format: cell-based; details: Homo sapiens, A2780, 96 h; read-out: pIC50 A2780 Ovarian Cell, With Palmitate (converted)
In short: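 Seeded cells were switched next day to lipid-reduced serum, exposed to compound and 25 μM palmitate complexed with fatty-acid-free BSA, and incubated 96 h. Proliferation was then determined by MTT absorbance at 544 nm, with a best-fit curve of signal against concentration.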

A2780 ovarian cells [2] = test: A2780 ovarian cell proliferation assay in lipid reduced medium, without palmitate (MTT); format: cell-based; details: Homo sapiens, A2780, 96 h; read-out: pIC50 A2780 Ovarian Cell, Without Palmitate (converted)
[3] = test system: LNCaP-Vancouver prostate cells; test: In vitro LNCaP Vancouver prostate cell proliferation assay in lipid reduced medium; format: cell-based; details: read-out: pIC50 LNCaP_Vancouver prostate cell (converted)
[4] = test system: PC-3M-Luc-C6 prostate cells; test: In vitro PC-3M-Luc-C6 prostate cell proliferation assay in lipid reduced medium; format: cell-based; details: 96 h, read-out: pIC50 PC-3M-Luc-C6 prostate cell (converted)
Method: PC-3M-Luc-C6 prostate cells were obtained from Xenogen Corporation. Cells were maintained in MEM supplemented with 10% Fetal Calf Serum (FCS, Hyclone), 2 mM glutamine, 1 mM sodium pyruvate, 1% BME vitamins (available from for example, Sigma Aldrich), 0.1 mM non Essential Amino Acid and 50 μg/ml Gentamicin. The cells were passaged twice a week.
The next day 10 μl test compound/DMSO diluted in medium was added (3E-5M, 1E-5M, 3E-6M, 1E-6M, 3E-7M, 1E-7M, 3E-8M, 1E-8M final concentration). Compounds were tested in duplicate. After 96 h incubation at 37° C., 5% CO2 25 μl ATP-glow mix was added. The plate was incubated for 30 min at 37° C. and luminescence was measured with the Envision.
Analysis: Determination of pIC50 Values
pIC50 values were calculated as follows.
where mLC and mHC are the means of the low control wells and high control wells on the plate, after manual exclusion of outliers. The relation between the % Controlmin values and concentration was fitted to a 4-parameter logistic curve using a non-linear least squares regression method to determine the pIC50 value. Outlying data points were excluded manually to get a correct fit. The pIC50 corresponds to −log 10(IC50), if the IC50 is expressed in molar units (http://www.ncbi.nlm.nih.gov/books/NBK91994). The IC50 parameter was always determined by non-linear regression, but one or more of the other parameters may have been held fixed on a relevant input value, such as 0 for the bottom values.

[5] = target: T1, hFASN enzyme (full length) (Homo sapiens, UniProt P49327); test: Fatty Acid Synthase (FASN) inhibition scintillation proximity assay; format: biochemical; details: for inhibition at 10 µM: read-out: Human FASN % inhibition @ 10 μM, 10 μM test compound
T1 construct: 10 μL hFASN enzyme (full length, 300 ng, purified in house); made in house
In short: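 Purified full-length hFASN (300 ng) converts ^3H-acetyl-CoA plus malonyl-CoA to ^3H-palmitate in 100 mM KH2PO4 pH 7.5, 1 mM DTT; compounds tested at 0.01–30 μM. Product captured on streptavidin imaging beads and read by LEADseeker at 610 nm after ≥24 h; 4-parameter logistic fit versus controls.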

T1 sequence (P49327 whole entry): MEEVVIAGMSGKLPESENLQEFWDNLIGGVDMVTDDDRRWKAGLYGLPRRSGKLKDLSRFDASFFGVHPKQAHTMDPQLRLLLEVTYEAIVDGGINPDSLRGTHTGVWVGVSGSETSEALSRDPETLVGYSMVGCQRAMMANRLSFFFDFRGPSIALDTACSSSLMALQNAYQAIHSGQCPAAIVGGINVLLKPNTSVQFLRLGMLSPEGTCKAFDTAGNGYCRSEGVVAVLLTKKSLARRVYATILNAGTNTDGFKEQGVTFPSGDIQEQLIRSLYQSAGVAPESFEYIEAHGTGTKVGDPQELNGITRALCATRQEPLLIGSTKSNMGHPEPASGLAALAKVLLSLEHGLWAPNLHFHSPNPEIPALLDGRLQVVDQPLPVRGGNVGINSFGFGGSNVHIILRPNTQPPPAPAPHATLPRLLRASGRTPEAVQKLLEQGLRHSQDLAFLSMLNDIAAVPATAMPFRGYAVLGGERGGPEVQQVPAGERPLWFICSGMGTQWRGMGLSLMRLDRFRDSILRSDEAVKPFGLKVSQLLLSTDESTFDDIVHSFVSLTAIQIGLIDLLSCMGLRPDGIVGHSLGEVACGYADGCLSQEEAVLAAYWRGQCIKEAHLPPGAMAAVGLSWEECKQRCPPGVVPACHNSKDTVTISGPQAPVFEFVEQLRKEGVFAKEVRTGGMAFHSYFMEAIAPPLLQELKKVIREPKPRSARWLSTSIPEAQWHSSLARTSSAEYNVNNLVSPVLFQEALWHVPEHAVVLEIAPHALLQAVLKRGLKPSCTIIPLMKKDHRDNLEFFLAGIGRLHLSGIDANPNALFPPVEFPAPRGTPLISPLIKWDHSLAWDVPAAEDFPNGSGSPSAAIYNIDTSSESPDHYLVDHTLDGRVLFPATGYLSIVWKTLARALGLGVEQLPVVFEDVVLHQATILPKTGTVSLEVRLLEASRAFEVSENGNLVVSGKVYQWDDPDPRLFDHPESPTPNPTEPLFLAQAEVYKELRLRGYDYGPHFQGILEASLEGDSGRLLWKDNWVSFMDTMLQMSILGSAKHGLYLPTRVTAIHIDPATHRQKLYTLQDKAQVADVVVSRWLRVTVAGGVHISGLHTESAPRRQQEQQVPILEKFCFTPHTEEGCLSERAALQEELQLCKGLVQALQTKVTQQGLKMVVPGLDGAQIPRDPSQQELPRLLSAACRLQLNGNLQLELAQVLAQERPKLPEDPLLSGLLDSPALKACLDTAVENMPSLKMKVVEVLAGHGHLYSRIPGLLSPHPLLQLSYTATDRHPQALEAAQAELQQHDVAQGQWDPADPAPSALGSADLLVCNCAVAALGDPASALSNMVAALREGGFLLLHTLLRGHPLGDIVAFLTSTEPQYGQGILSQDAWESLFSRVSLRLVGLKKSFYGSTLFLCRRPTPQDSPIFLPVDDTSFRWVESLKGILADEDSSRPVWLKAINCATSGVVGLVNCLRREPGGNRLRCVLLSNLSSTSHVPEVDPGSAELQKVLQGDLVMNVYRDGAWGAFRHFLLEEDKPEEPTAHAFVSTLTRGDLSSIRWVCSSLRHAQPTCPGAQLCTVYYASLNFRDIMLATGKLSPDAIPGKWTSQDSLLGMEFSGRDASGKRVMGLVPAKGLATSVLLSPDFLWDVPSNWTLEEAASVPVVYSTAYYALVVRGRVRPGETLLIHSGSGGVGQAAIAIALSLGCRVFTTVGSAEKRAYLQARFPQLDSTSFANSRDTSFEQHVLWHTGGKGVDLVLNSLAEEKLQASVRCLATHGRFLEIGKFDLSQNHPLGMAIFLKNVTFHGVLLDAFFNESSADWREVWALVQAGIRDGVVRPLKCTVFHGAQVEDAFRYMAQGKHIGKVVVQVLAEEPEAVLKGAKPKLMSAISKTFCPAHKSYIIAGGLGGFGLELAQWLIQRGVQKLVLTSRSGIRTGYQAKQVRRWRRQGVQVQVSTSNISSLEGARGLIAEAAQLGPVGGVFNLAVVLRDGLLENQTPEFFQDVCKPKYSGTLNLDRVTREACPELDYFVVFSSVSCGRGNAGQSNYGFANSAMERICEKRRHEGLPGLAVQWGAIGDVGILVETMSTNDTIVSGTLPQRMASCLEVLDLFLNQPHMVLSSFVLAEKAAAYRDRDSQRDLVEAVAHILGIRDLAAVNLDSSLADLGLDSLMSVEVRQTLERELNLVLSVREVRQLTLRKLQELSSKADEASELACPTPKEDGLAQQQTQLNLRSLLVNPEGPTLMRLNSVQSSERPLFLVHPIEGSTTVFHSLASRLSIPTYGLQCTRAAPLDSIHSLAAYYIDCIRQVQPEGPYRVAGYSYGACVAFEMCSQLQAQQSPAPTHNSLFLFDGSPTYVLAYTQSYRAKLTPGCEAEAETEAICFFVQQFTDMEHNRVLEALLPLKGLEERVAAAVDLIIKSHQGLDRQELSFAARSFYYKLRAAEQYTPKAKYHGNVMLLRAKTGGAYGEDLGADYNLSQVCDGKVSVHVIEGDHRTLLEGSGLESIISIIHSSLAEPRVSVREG

| SMILES | IC50 (A2780 ovarian cells [1]) | IC50 (A2780 ovarian cells [2]) | IC50 [3] | IC50 [4] | inhibition at 10 µM [5] | IC50 ([5]; read-out: Human FASN pIC50 (converted)) |
| --- | --- | --- | --- | --- | --- | --- |
| Cn1ncc2cc(-c3ccc(C4=NC5(CC5)C(=O)N4CC4CN(C(=O)C5CC5)C4)cc3)ccc21 [compound 39, 6-{[1-(Cyclopropylcarbonyl)azetidin-3-yl]methyl}-5-[4-(1-methyl-1H-indazol-5-yl)phenyl]-4,6-diazaspiro[2.4]hept-4-en-7-one] | > 10000 nM | 331 nM | 1050 nM | 151 nM |  |  |
| Cn1ncc2cc(-c3ccc(C4=NC5(CC5)C(=O)N4C[C@@H]4CCN(C(=O)C5CCO5)C4)cc3)ccc21 (stereo partly drawn) [compound 204, 5-(4-(1-methyl-1H-indazol-5-yl)phenyl)-6-(((3R)-1-(oxetane-2-carbonyl)pyrrolidin-3-yl)methyl)-4,6-diazaspiro[2.4]hept-4-en-7-one] | > 10000 nM | ~40.7 nM | 407 nM | 51.3 nM | 103% |  |
| Cc1cc(-c2ccc3c(cnn3C)c2)ccc1C1=NC2(CC2)C(=O)N1CC1CN(C(=O)C2(C)CC2)C1 [compound 207, 5-(2-methyl-4-(1-methyl-1H-indazol-5-yl)phenyl)-6-((1-(1-methylcyclopropanecarbonyl)azetidin-3-yl)methyl)-4,6-diazaspiro[2.4]hept-4-en-7-one] | > 10000 nM | 60.3 nM | 513 nM | ~67.6 nM | 101% |  |
| Cc1cc(-c2ccc3cc(F)ccc3c2)ccc1C1=NC2(CC2)C(=O)N1CC1CN(C(=O)C2CCO2)C1 (centres unmarked) [compound 223, 5-(4-(6-fluoronaphthalen-2-yl)-2-methylphenyl)-6-((1-(oxetan-2-carbonyl)azetidin-3-yl)methyl)-4,6-diazaspiro[2.4]hept-4-en-7-one] | 3310 nM | ~20 nM | 240 nM | 60.3 nM | 104% | 53.7 nM |
| O=C(C1CC1)N1CC(CN2C(=O)C3(CC3)N=C2c2ccc(-c3ccc4cc(F)ccc4n3)cc2F)C1 [compound 228, 6-((1-(cyclopropanecarbonyl)azetidin-3-yl)methyl)-5-(2-fluoro-4-(6-fluoroquinolin-2-yl)phenyl)-4,6-diazaspiro[2.4]hept-4-en-7-one] | > 10000 nM | 18.2 nM | 759 nM | 97.7 nM | 103% |  |
| Cc1cc(C2=NC3(CC3)C(=O)N2C[C@@H]2CCN(C(=O)C3CC3)C2)ccc1-c1ccc2cc[nH]c2c1 [compound 239, (R)-5-(4-(1H-indol-6-yl)-3-methylphenyl)-6-((1-(cyclopropanecarbonyl)pyrrolidin-3-yl)methyl)-4,6-diazaspiro[2.4]hept-4-en-7-one] | > 10000 nM | 60.3 nM | 813 nM | 135 nM | 96% |  |
| O=C(C1CC1)N1CC[C@@H](CN2C(=O)C3(CC3)N=C2c2ccc(-c3nc4ccccc4s3)cc2F)C1 [compound 252, (R)-5-(4-(benzo[d]thiazol-2-yl)-2-fluorophenyl)-6-((1-(cyclopropanecarbonyl)pyrrolidin-3-yl)methyl)-4,6-diazaspiro[2.4]hept-4-en-7-one] | > 10000 nM | ~77.6 nM | 251 nM | 56.2 nM |  |  |
| Cc1cc(-c2ccc3c(cnn3C)c2)ccc1C1=NC2(CC2)C(=O)N1C[C@@H]1CCN(C(=O)C2CC2)C1 [compound 262, (R)-6-((1-(cyclopropanecarbonyl)pyrrolidin-3-yl)methyl)-5-(2-methyl-4-(1-methyl-1H-indazol-5-yl)phenyl)-4,6-diazaspiro[2.4]hept-4-en-7-one] | 6030 nM | 77.6 nM | 295 nM | ~117 nM |  |  |
| O=C(C1CC1)N1CC[C@@H](CN2C(=O)C3(CC3)N=C2c2ccc(-c3ccc4[nH]ncc4c3)cc2)C1 [compound 297, (R)-5-(4-(1H-indazol-5-yl)phenyl)-6-((1-(cyclopropanecarbonyl)pyrrolidin-3-yl)methyl)-4,6-diazaspiro[2.4]hept-4-en-7-one] | > 10000 nM | 25.1 nM | 646 nM | ~30.2 nM |  |  |
| O=C(C1CC1)N1CC[C@@H](CN2C(=O)C3(CC3)N=C2c2ccc(-c3cccc4[nH]ncc34)cc2)C1 [compound 302] | > 10000 nM | 13.2 nM | 437 nM | 16.6 nM |  |  |
| O=C(C1CC1)N1CC[C@@H](CN2C(=O)C3(CC3)N=C2c2ccc(-c3ccc4cccnc4c3)cc2)C1 [compound 309, (R)-6-((1-(cyclopropanecarbonyl)pyrrolidin-3-yl)methyl)-5-(4-(quinolin-7-yl)phenyl)-4,6-diazaspiro[2.4]hept-4-en-7-one] | > 10000 nM | 6.17 nM | 31.6 nM | 7.41 nM |  |  |

Other lines, results leading:

| IC50 (A2780 ovarian cells [1]) | IC50 (A2780 ovarian cells [2]) | IC50 [3] | IC50 [4] | inhibition at 10 µM [5] | IC50 ([5]; read-out: Human FASN pIC50 (converted)) | SMILES |
| --- | --- | --- | --- | --- | --- | --- |
|  |  | 240 nM | 81.3 nM | 98% |  | Cn1cnc2cc(-c3ccc(C4=NC5(CC5)C(=O)N4CC4CN(C(=O)C5CC5)C4)cc3)ccc21 [compound 343, 6-((1-(cyclopropanecarbonyl)azetidin-3-yl)mehtyl)-5-(4-(1-methyl-1H-benzo[d]imidazol-5-yl)phenyl)-4,6-diazaspiro[2.4]hept-4-en-7-one] |
|  |  | 1200 nM | 562 nM | 99% |  | O=C(C1CC1)N1CC(CN2C(=O)C3(CC3)N=C2c2ccc(-c3ccc4ccccc4n3)cc2)C1 [compound 345, 6-((1-(cyclopropanecarbonyl)azetidin-3-yl)methyl)-5-(4-(quinolin-2-yl)phenyl)-4,6-diazaspiro[2.4]hept-4-en-7-one] |
| > 10000 nM | 2090 nM | 2190 nM | 1170 nM |  |  | O=C(C1CC1)N1CC[C@H](CN2C(=O)C3(CC3)N=C2c2ccc(-c3ccc4occc4c3)cc2)C1 [compound 409, 5-[4-(1-Benzofuran-5-yl)phenyl]-6-{[(3S)-1-(cyclopropylcarbonyl)pyrrolidin-3-yl]methyl}-4,6-diazaspiro[2.4]hept-4-en-7-one] |
| > 10000 nM | 537 nM | 977 nM | 447 nM |  |  | Cn1ncc2cc(-c3ccc(C4=NC5(CC5)C(=O)N4C[C@H]4CCN(C(=O)C5CC5)C4)cc3)ccc21 [compound 410, 6-{[(3S)-1-(Cyclopropylcarbonyl)pyrrolidin-3-yl]methyl}-5-[4-(1-methyl-1H-indazol-5-yl)phenyl]-4,6-diazaspiro[2.4]hept-4-en-7-one] |
| > 10000 nM | ~617 nM | 2340 nM | 794 nM |  |  | Cc1cc(C2=NC3(CC3)C(=O)N2C[C@@H]2CCN(C(=O)C3CC3)C2)ccc1-c1ccc2c(cnn2C)c1 [compound 450, 6-{[(3R)-1-(Cyclopropylcarbonyl)pyrrolidin-3-yl]methyl}-5-[3-methyl-4-(1-methyl-1H-indazol-5-yl)phenyl]-4,6-diazaspiro[2.4]hept-4-en-7-one] |
| > 10000 nM | ~891 nM | 2140 nM | ~692 nM |  |  | O=C(C1CC1)N1CC[C@@H](CN2C(=O)C3(CC3)N=C2c2ccc(-c3ccc4ncccc4c3)cc2)C1 [compound 455, 6-{[(3R)-1-(Cyclopropylcarbonyl)pyrrolidin-3-yl]methyl}-5-(4-quinolin-6-ylphenyl)-4,6-diazaspiro[2.4]hept-4-en-7-one] |
| > 10000 nM | 200 nM | 1000 nM | 708 nM |  |  | O=C(C1CC1)N1CC[C@@H](CN2C(=O)C3(CC3)N=C2c2ccc(-c3cnc4ccccc4c3)cc2)C1 [compound 474, 6-{[(3R)-1-(Cyclopropylcarbonyl)pyrrolidin-3-yl]methyl}-5-(4-quinolin-3-ylphenyl)-4,6-diazaspiro[2.4]hept-4-en-7-one] |
| > 10000 nM | ~398 nM | 2340 nM | 501 nM |  |  | O=C(C1CC1)N1CC[C@@H](CN2C(=O)C3(CC3)N=C2c2ccc(-c3n[nH]c4ccccc34)cc2)C1 [compound 528, 6-{[(3R)-1-(Cyclopropylcarbonyl)pyrrolidin-3-yl]methyl}-5-[4-(1H-indazol-3-yl)phenyl]-4,6-diazaspiro[2.4]hept-4-en-7-one] |
